US20230357272A1, “OCTAHYDROPYRAZINODIAZANAPHTHYRIDINE DIONE COMPOUNDS” (MEDSHINE DISCOVERY INC., priority 2020, published 2023)
Like-named read-outs stand apart in the source and are kept apart here.

Columns and labels:
NCI-H358 cells = test: Anti-proliferation experiment of H358 cells (CellTiter-Glo); type: cell-based; settings: Homo sapiens, 120 h, 5 days
Description: RPMI-1640 culture medium, penicillin/streptomycin antibiotics purchased from Wisent, and fetal bovine serum purchased from Biosera. CellTiter-Glo (chemiluminescence detection reagent for cell viability) reagent purchased from Promega. NCI-H358 cell line purchased from the Cell Bank of the Chinese Academy of Sciences. Nivo multi-label analyzer (PerkinElmer).
NCI-H358 cells were seeded in a white 96-well plate with 80 μL of cell suspension per well, which contained 4000 NCI-H358 cells. The cell plate was incubated overnight in a carbon dioxide incubator.
The compounds to be tested were diluted 3-fold with a row gun to the ninth concentration, that is, from 2 mM to 304 nM, and a double-duplication experiment was set up. 78 μL of culture medium was added to a middle plate, and then 2 μL of gradient diluted compound per well was transferred to the middle plate according to the corresponding position. After being thoroughly mixed, 20 μL per well was transferred to the cell plate. The concentration range of the compound transferred to the cell plate was 10 μM to 1.52 nM. The cell plate was placed in the carbon dioxide incubator for 5 days. Another cell plate was prepared, and the signal value was read as the maximum value (Max value in the equation below) on the day of administration to participate in data analysis. 25 μL of cell viability chemiluminescence detection reagent was added to each well of the cell plate, and incubated at room temperature for 10 minutes to stabilize the luminescence signal. A multi-label analyzer was used for reading.
25 μL of cell viability chemiluminescence detection reagent was added to each well of the cell plate, and incubated at room temperature for 10 minutes to stabilize the luminescence signal. A multi-label analyzer was used for reading.
Using the equation (Sample−Min)/(Max−Min)*100% to convert the raw data into inhibition rate, and the value of IC50 might be obtained by curve fitting with four parameters (obtained by “log (inhibitor) vs. response—Variable slope” mode in GraphPad Prism). Table 1 provides the inhibitory activity of the compounds of the present disclosure on the proliferation of NCI-H358 cells.

[1] = test system: H358 human non-small cell lung cancer cell line; test: Anti-tumor activity test on in vivo H358 xenograft tumor model; parameters: species or system Female Balb/c nude mice; settings: for T/C / TGI: 28 days; for mean tumor volume: 28 days after administration
Text: Human non-small cell lung cancer H358 was used to investigate the tumor-inhibitory effect of the compound to be tested alone in an in vivo tumor model.
Female Balb/c nude mice were subcutaneously inoculated with the H358 human non-small cell lung cancer cell line, randomly grouped on the 6th day after inoculation according to tumor size and animal body weight, and administered as described below.
Vehicle control group: The administration was started in the afternoon of the grouping day, once a day, and the vehicle (10% DMSO/60% PEG400/30% deionized water) was intragastrically administered at a dose of 0.1 mL/10 g body weight for 28 consecutive days.
Administration group: The administration was started in the afternoon of the grouping day, once a day, and 3 groups were intragastrically administered with compound 1D (10% DMSO/60% PEG400/30% deionized water) at the doses of 1 mg/kg, 3 mg/kg and 10 mg/kg body weight, respectively, for 28 consecutive days.
During the experiment, the mice were weighed twice a week, and the tumor volume was measured (tumor volume was calculated according to the formula of length×width^2/2). The tumor inhibition rate TGI (%) was calculated according to the formula TGI (%)=[(1−mean tumor volume at the end of administration of a treatment group−mean tumor volume at the time of group administration of the treatment group)/(mean tumor volume at the end of treatment of vehicle control group−mean tumor volume at the time of group administration of vehicle control group)]×100%.
The relative tumor volume was calculated as RTV=TVn/TV1×100%
Where TV1 was the tumor volume on the day of group administration, and TVn was the tumor volume on the day of measurement.
Relative tumor proliferation rate (T/C %)=RTVt/RTVc×100%
Where RTVt was the mean relative tumor volume of the treatment group, and RTVc was the mean relative tumor volume of the vehicle control group.

[2] = Pharmacokinetic study of female BALB/c nude mice (plasma and tumor); type: in vivo; settings: for concentration at 1 h / concentration at 4 h / concentration at 8 h: oral, read-out: Mean drug concentration; for Kp: tumor/plasma, read-out: AUC ratio = tumor AUC0-last/plasma AUC0-last
Description: This experiment was a pharmacokinetic study of female BALB/c nude mice after oral administration of compound 1D. The experiment was divided into three groups, which were intragastrically administered with 1, 3 and 10 mg/kg of compound 1D, respectively. Animals in each group were divided into two batches, and plasma and tumor tissue samples were collected at different time points after administration. The collection time points of the plasma samples from each group of animals were: 0.083, 0.25, 0.5, 1, 2, 4, 6 and 8 hours, respectively, and the collection time points of tumor tissue samples were 1, 4 and 8 hours, respectively. At the corresponding sample collection time point after administration, plasma was collected, and tumor tissue was dissected and weighed. The plasma was stored at −80° C., and the tumor tissue was stored in a cryopreservation tube and quickly frozen in liquid nitrogen. Cross-collected plasma samples were used to calculate the mean concentration of the corresponding time points in each group for the calculation of PK parameters.

[3] = 1 mg/kg intragastric once a day
[4] = 3 mg/kg intragastric once a day
[5] = 10 mg/kg intragastric once a day
[6] = female, BALB/c nude, mouse, plasma, 1 mg/kg intragastric
[7] = female, BALB/c nude, mouse, plasma, 3 mg/kg intragastric
[8] = female, BALB/c nude, mouse, plasma, 10 mg/kg intragastric
[9] = female, BALB/c nude, mouse, tumor, 1 mg/kg intragastric
[10] = female, BALB/c nude, mouse, tumor, 3 mg/kg intragastric
[11] = female, BALB/c nude, mouse, tumor, 10 mg/kg intragastric
[12] = female, BALB/c nude, mouse, po, plasma, 1 mg/kg intragastric
[13] = female, BALB/c nude, mouse, po, plasma, 3 mg/kg intragastric
[14] = female, BALB/c nude, mouse, po, plasma, 10 mg/kg intragastric
[15] = female, BALB/c nude, mouse, po, tumor, 3 mg/kg intragastric
[16] = female, BALB/c nude, mouse, po, tumor, 10 mg/kg intragastric

## C=CC(=O)N1CCN2c3c(c(=O)n(-c4c(C)ccnc4C(C)C)c4c(=O)n(-c5c(N)c(Cl)cc(Cl)c5F)c(C(F)(F)F)cc34)OCC[C@H]2C1 [Compound 1D]
NCI-H358 cells
  IC50: 0.917 nM
[1]; [3]
  T/C: 51.35%
  TGI: 58.78%
  mean tumor volume: 341.36 mm^3
[1]; [4]
  T/C: 27.59%
  TGI: 84.17%
  mean tumor volume: 199.4 mm^3
[1]; [5]
  T/C: 5.76%
  TGI: 113.19%
  mean tumor volume: 37.5 mm^3
[2]; [6]
  concentration at 1 h: 22.5 nM
  concentration at 4 h: 3.58 nM
  concentration at 8 h: 1.22 nM
[2]; [7]
  concentration at 1 h: 157 nM
  concentration at 4 h: 11.5 nM
  concentration at 8 h: 4.13 nM
[2]; [8]
  concentration at 1 h: 285 nM
  concentration at 4 h: 54.8 nM
  concentration at 8 h: 30.6 nM
[2]; [9]
  concentration at 1 h: 10.4 nM
  concentration at 4 h: 2.04 nM
[2]; [10]
  concentration at 1 h: 136 nM
  concentration at 4 h: 9.78 nM
  concentration at 8 h: 2.78 nM
[2]; [11]
  concentration at 1 h: 203 nM
  concentration at 4 h: 37.9 nM
  concentration at 8 h: 20.8 nM
[2]; [12]
  AUC(0-t): 0.0544 µM·h
  Tmax: 0.25 h
  half-life: 2.57 h
[2]; female, BALB/c nude, mouse, po, plasma, 1 mg/kg intragastric, read-out: Cmax
  Cmax: 40.8 nM
[2]; [13]
  AUC(0-t): 0.287 µM·h
  Tmax: 0.5 h
  half-life: 2.2 h
[2]; female, BALB/c nude, mouse, po, plasma, 3 mg/kg intragastric, read-out: Cmax
  Cmax: 191 nM
[2]; [14]
  AUC(0-t): 0.84 µM·h
  Tmax: 0.25 h
  half-life: 1.99 h
[2]; female, BALB/c nude, mouse, po, plasma, 10 mg/kg intragastric, read-out: Cmax
  Cmax: 348 nM
[2]; [15]
  Tmax: 1 h
  half-life: 1.28 h
[2]; [16]
  Tmax: 1 h
  half-life: 2.19 h
[2]; female, BALB/c nude, mouse, po, 3 mg/kg intragastric
  Kp: 0.815
[2]; female, BALB/c nude, mouse, po, 10 mg/kg intragastric
  Kp: 0.608
[2]; plasma, 1 mg/kg intragastric
  Tlast: 8.00 h
[2]; plasma, 3 mg/kg intragastric
  Tlast: 8.00 h
[2]; plasma, 10 mg/kg intragastric
  Tlast: 8.00 h
[2]; tumor, 3 mg/kg intragastric
  AUC0-last: 234 nmol·h/kg
  Cmax: 136 nmol/kg
  Tlast: 8.00 h
[2]; tumor, 10 mg/kg intragastric
  AUC0-last: 511 nmol·h/kg
  Cmax: 203 nmol/kg
  Tlast: 8.00 h
